How the values were obtained:
[1] = test system: primary fibroblasts (including lung, dermal), HFL-1, 3T3 and CHO cells expressing LPA1R; test: LPA1 migration assay (Oris cell migration); assay type: cell-based; conditions: inhibition of cell migration in response to chemoattractant (LPA, serum)
Description: Migration of primary fibroblasts (including lung, dermal), HFL-1, 3T3 and CHO cells expressing LPA1R were monitored using the Oris™ assay (Platypus Technologies, Madison, Wis.). These cells were dye (Cell Tracker Green™) loaded and serum starved for 12-24 hrs. In response to chemoattractants such as LPA and serum, the cells migrated inward in to the exclusion (detection) zone. After fixing, fluorescent cells in the detection zone were counted using a high content reader. The ability of LPA1 antagonists to inhibit cell migration is quantified by plotting cell number vs. compound concentration and curve fitting the resulting dose-response curve to a 4 parameter logistic function.

Human LPA1 = Human LPA1 (Homo sapiens, UniProt Q92633); test: Beta-Arrestin based assay for human LPA1R antagonists (PathHunter); assay type: cell-based; conditions: CHO cells expressing ProLink tagged human LPA1R; antagonist mode, 0.5 micromolar LPA
Experimental: Beta-Arrestin Based Assays for Human LPA1R Antagonists and Agonists
A CHO cell line stably expressing the ProLink™ tagged human LPA1R was obtained from DiscoverX Inc, Fremont, Calif. In this system, β-Arrestin was fused to an N-terminal deletion mutant of β-galactosidase (termed the enzyme acceptor or EA), the human LPA1R was fused to a smaller (42 amino acids) weakly complementing fragment termed ProLink™. […] Cell handling and assays were performed according to protocols specified in the PathHunter® assays kits (DiscoverX, Fremont, Calif.). Assays were performed in quadruplicate in white 384 well plates. End point luminescence data were plotted and fit to a 4 parameter logistic function to obtain IC50 values. For antagonist assays, an […] concentration of agonist (LPA) equal to 0.5 micromolar was used.

Sequence of Human LPA1 (Q92633 whole entry): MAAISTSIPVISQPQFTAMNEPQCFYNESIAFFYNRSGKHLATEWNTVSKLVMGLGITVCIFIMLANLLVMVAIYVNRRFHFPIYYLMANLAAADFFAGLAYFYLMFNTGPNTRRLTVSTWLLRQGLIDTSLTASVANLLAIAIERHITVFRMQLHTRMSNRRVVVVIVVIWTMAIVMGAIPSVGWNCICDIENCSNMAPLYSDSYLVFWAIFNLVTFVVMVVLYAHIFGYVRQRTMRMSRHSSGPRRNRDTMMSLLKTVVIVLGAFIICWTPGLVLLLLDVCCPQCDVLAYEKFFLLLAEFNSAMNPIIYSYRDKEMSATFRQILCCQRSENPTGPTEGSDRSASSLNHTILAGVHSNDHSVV

Structure (SMILES) | EC50 [1] | EC50 (Human LPA1)
Cc1noc(-c2ccc(-c3ccc4c(c3)CCCC4C(=O)O)cc2)c1NC(=O)O[C@H](C)c1ccccc1 (single isomer, unassigned) [IT038] | > 0.5 µM | –
Cc1noc(-c2ccc(-c3ccc4c(c3)CCCC4C(=O)O)cc2)c1NC(=O)O[C@H](C)c1ccccc1 (single isomer, unassigned) [IT039] | > 0.5 µM | –
Cc1noc(-c2ccc(-c3ccc(C4(C(=O)O)CC4)cc3)cc2)c1NC(=O)O[C@@H]1CCCc2ccccc21 (single isomer, unassigned) [IT057] | > 0.5 µM | > 0.5 µM
Cc1noc(-c2ccc(-c3ccc(C4(C(=O)O)CC4)cc3)cc2)c1NC(=O)O[C@H]1CCCc2ccccc21 (single isomer, unassigned) [IT058] | > 0.5 µM | > 0.5 µM
Cc1nsc(C2CCC(c3ccc(C4(C(=O)O)CC4)cc3)CC2)c1NC(=O)O[C@H](C)c1ccccc1 (single isomer, unassigned) [IT059] | > 0.5 µM | 0.05 to 0.5 µM
Cc1nsc(C2CCC(c3ccc(C4(C(=O)O)CC4)cc3)CC2)c1NC(=O)O[C@H](C)c1ccccc1 (single isomer, unassigned) [IT060] | > 0.5 µM | > 0.5 µM
Cc1nsc(C#Cc2ccc3c(c2)CCC(C(=O)O)C3)c1NC(=O)O[C@H](C)c1ccccc1 (single isomer, unassigned) [IT062] | > 0.5 µM | > 0.5 µM
Cc1nsc(C#Cc2ccc3c(c2)CCC(C(=O)O)C3)c1NC(=O)O[C@H](C)c1ccccc1 (single isomer, unassigned) [IT063] | > 0.5 µM | > 0.5 µM
Cc1noc(-c2ccc(-c3ccc(C4(C(=O)O)CC4)cc3)cc2)c1NC(=O)OC(C)c1cccc2ocnc12 (single isomer, unassigned) [IT076] | – | > 0.5 µM
Cc1noc(-c2ccc(-c3ccc(C4(C(=O)O)CC4)cc3)cc2)c1NC(=O)OC(C)c1cccc2ocnc12 (single isomer, unassigned) [IT077] | – | 0.05 to 0.5 µM
Cc1nsc(-c2ccc(-c3ccc(C4(C(=O)O)CC4)cc3)cc2)c1NC(=O)OC(c1ccccc1)C(F)(F)F (single isomer, unassigned) [IT078] | 0.05 to 0.5 µM | < 0.05 µM
Cc1nsc(-c2ccc(-c3ccc(C4(C(=O)O)CC4)cc3)cc2)c1NC(=O)OC(c1ccccc1)C(F)(F)F (single isomer, unassigned) [IT079] | > 0.5 µM | > 0.5 µM
Cc1noc(C#Cc2ccc(CC3(C(=O)O)CC3)cc2)c1NC(=O)O[C@H](C)c1ccccc1 [IT001] | 0.05 to 0.5 µM | 0.05 to 0.5 µM
Cc1noc(C#Cc2ccc(C3(CC(=O)O)CC3)cc2)c1NC(=O)O[C@H](C)c1ccccc1 [IT002] | 0.05 to 0.5 µM | 0.05 to 0.5 µM
Cc1noc(C#Cc2ccc(NC(=O)C3(C(=O)O)CC3)cc2)c1NC(=O)O[C@H](C)c1ccccc1 [IT005] | > 0.5 µM | > 0.5 µM
Cc1noc(C#Cc2ccc(CC3(C(=O)O)CC3)cc2)c1NC(=O)O[C@H](C)c1ccccc1 [IT006] | – | 0.05 to 0.5 µM
Cc1nsc(-c2ccc([C@H]3CC[C@@H](C(=O)O)CC3)cc2)c1NC(=O)O[C@H](C)c1ccccc1 [IT007] | > 0.5 µM | > 0.5 µM
Cc1nsc(-c2ccc([C@H]3CC[C@H](C(=O)O)CC3)cc2)c1NC(=O)O[C@H](C)c1ccccc1 [IT008] | > 0.5 µM | > 0.5 µM
Cc1noc(-c2ccc(-c3ccc4c(c3)NC(=O)CC4C(=O)O)cc2)c1NC(=O)O[C@H](C)c1ccccc1 (stereo partly shown) [IT011] | > 0.5 µM | 0.05 to 0.5 µM
Cc1noc(-c2ccc(-c3ccc4c(c3)CCOC4C(=O)O)cc2)c1NC(=O)O[C@H](C)c1ccccc1 (stereo partly shown) [IT012] | > 0.5 µM | > 0.5 µM
Cc1noc(C#Cc2ccc(/C=C/C(=O)O)cc2)c1NC(=O)O[C@H](C)c1ccccc1 [IT013] | > 0.5 µM | > 0.5 µM
C[C@@H](OC(=O)Nc1c(-c2ccc(-c3ccc(C4(C(=O)O)CC4)cc3)cc2)nc2n1CCNC2)c1ccccc1 [IT019] | > 0.5 µM | > 0.5 µM

Structure (SMILES) | EC50 [1] | EC50 (Human LPA1)
CCN1CCn2c(nc(-c3ccc(-c4ccc(C5(C(=O)O)CC5)cc4)cc3)c2NC(=O)O[C@H](C)c2ccccc2)C1 [IT024] | > 0.5 µM | > 0.5 µM
Cc1nsc(-c2ccc(-c3cc4sc(C(=O)O)cc4s3)cc2)c1NC(=O)O[C@H](C)c1ccccc1 [IT025] | > 0.5 µM | > 0.5 µM
C[C@@H](OC(=O)Nc1c(-c2ccc(C#CC3(C(=O)O)CC3)cc2)nnn1C)c1ccccc1 [IT036] | > 0.5 µM | > 0.5 µM
Cc1noc(-c2ccc(-c3ccc4c(c3)OCCC4C(=O)O)cc2)c1NC(=O)O[C@H](C)c1ccccc1 (stereo partly shown) [IT037] | – | 0.05 to 0.5 µM
Cc1nsc(-c2cc(F)c(-c3ccc(C4(C(=O)O)CCOCC4)cc3)cc2F)c1NC(=O)O[C@H](C)c1ccccc1 [IT042] | 0.05 to 0.5 µM | < 0.05 µM
C[C@@H](OC(=O)Nc1c(-c2cc(F)c(-c3ccc(C4(C(=O)O)CCOCC4)cc3)cc2F)cnn1C)c1ccccc1 [IT044] | 0.05 to 0.5 µM | < 0.05 µM
Cc1nsc(-c2cc(F)c(-c3ccc(C4(C(=O)O)CCOCC4)cc3)cc2F)c1NC(=O)OCc1ccccc1 [IT045] | > 0.5 µM | > 0.5 µM
C[C@@H](OC(=O)Nc1c(-c2cc(F)c(-c3ccc(C4(C(=O)O)CC4)cc3)cc2F)nn2ccccc12)c1ccccc1 [IT049] | 0.05 to 0.5 µM | < 0.05 µM
C[C@@H](OC(=O)Nc1c(-c2ccc(-c3ccc(C4(C(=O)O)CC4)cc3)cc2)nn2ccccc12)c1ccccc1 [IT052] | > 0.5 µM | –
Cc1nsc(-c2ccc3cc(C4CCC(C(=O)O)CC4)ccc3c2)c1NC(=O)O[C@H](C)c1ccccc1 (stereo partly shown) [IT053] | > 0.5 µM | > 0.5 µM
Cc1nsc(-c2ccc3cc(C4CCC(C(=O)O)CC4)ccc3c2)c1NC(=O)O[C@H](C)c1ccccc1 (stereo partly shown) [IT054] | > 0.5 µM | > 0.5 µM
C[C@@H](OC(=O)Nc1c(-c2cc(F)c(-c3ccc(C4(C(=O)O)CCOCC4)cc3)cc2F)nnn1C)c1ccccc1 [IT055] | 0.05 to 0.5 µM | 0.05 to 0.5 µM
Cc1noc(C#Cc2ccc3cc(CC4(C(=O)O)CC4)ccc3c2)c1NC(=O)O[C@H](C)c1ccccc1 [IT065] | > 0.5 µM | 0.05 to 0.5 µM
Cc1nsc(-c2ccc(N3CCC(CC(=O)O)CC3)cc2)c1NC(=O)O[C@H](C)c1ccccc1 [IT068] | > 0.5 µM | > 0.5 µM
C[C@@H](OC(=O)Nc1c(C(F)(F)F)nnn1-c1ccc(-c2ccc(C3(C(=O)O)CC3)cc2)cc1)c1ccccc1 [IT072] | > 0.5 µM | < 0.05 µM
C[C@@H](OC(=O)Nc1c(C#Cc2cc3sc(C4(C(=O)O)CC4)cc3s2)oc2ccccc12)c1ccccc1 [IT074] | > 0.5 µM | 0.05 to 0.5 µM
C[C@@H](OC(=O)Nc1c(-c2cc(F)c(-c3ccc(C4(C(=O)O)CC4)cc3)cc2F)oc2ccccc12)c1ccccc1 [IT075] | 0.05 to 0.5 µM | < 0.05 µM
Cc1nsc(-c2cc3cc4sc(C(=O)O)cc4cc3s2)c1NC(=O)O[C@H](C)c1ccccc1 [IT080] | – | > 0.5 µM
C[C@@H](OC(=O)Nc1ncsc1C#Cc1cc2sc(C3(C(=O)O)CC3)cc2s1)c1ccccc1 [IT101] | – | > 0.5 µM
COCC(COC(=O)C1(c2cc3sc(C#Cc4cnn(C)c4NC(=O)O[C@H](C)c4ccccc4)cc3s2)CC1)OC (stereo partly shown) [IT 100] | – | < 0.05 µM
Cc1noc(C#Cc2nc3sc(C4(C(=O)O)CC4)cc3s2)c1NC(=O)O[C@H](C)c1ccccc1 [IT 102] | – | < 0.05 µM
C[C@@H](OC(=O)Nc1c(C#Cc2sc3cc(C4(C(=O)O)CC4)sc3c2C(F)(F)F)cnn1C)c1ccccc1 [IT 103] | – | < 0.05 µM
